Activity calls are given as the source filed them. No cut-off for these calls is given here.
Assays:
Mus musculus [1] = test: Analgetic activity against CF-1 mouse assessed as increase in reaction time at 100 mg/kg, sc by heat stimulus induced tail flick response assay; format: functional, organism-based; design: dose 100 mg/kg
Mus musculus [2] = test: Analgetic activity against CF-1 mouse assessed as increase in reaction time at 4 mg/kg, sc by heat stimulus induced tail flick response assay; format: functional, organism-based; design: dose 4 mg/kg
Mus musculus [3] = organism: Mus musculus; test: Analgetic activity in naloxone challenged mouse assessed as frequency pretreated for 2 day by mouse jumping test; format: functional, organism-based
Mus musculus [4] = test: Analgetic activity against CF-1 mouse assessed as increase in reaction time at 16 mg/kg, po by heat stimulus induced tail flick response assay; format: functional, organism-based; design: dose 16 mg/kg
Mus musculus [5] = test: Analgetic activity in po dosed CF1S mouse assessed as writhing by phenylquinone writhing test; format: functional; settings: Mus musculus, CF1S, po; read-out: ED50
Mus musculus [6] = test: Analgetic activity against CF-1 mouse assessed as increase in reaction time at 1.2 mg/kg, po by heat stimulus induced tail flick response assay; format: functional, organism-based; design: dose 1.2 mg/kg
Mus musculus [7] = test: Analgetic activity against CF-1 mouse assessed as increase in reaction time at 5 mg/kg, sc by heat stimulus induced tail flick response assay; format: functional, organism-based; design: dose 5 mg/kg
Mus musculus [8] = test: Analgetic activity against CF-1 mouse assessed as increase in reaction time at 50 mg/kg, sc by heat stimulus induced tail flick response assay; format: functional, organism-based; design: dose 50 mg/kg
Mus musculus [9] = test: Analgetic activity against CF-1 mouse assessed as increase in reaction time at 10 mg/kg, po by heat stimulus induced tail flick response assay; format: functional, organism-based; design: dose 10 mg/kg
Mus musculus [10] = test: Analgetic activity against CF-1 mouse assessed as increase in reaction time at 1.5 mg/kg, sc by heat stimulus induced tail flick response assay; format: functional, organism-based; design: dose 1.5 mg/kg
Mus musculus [11] = test: Analgetic activity against CF-1 mouse assessed as increase in reaction time at 140 mg/kg, sc by heat stimulus induced tail flick response assay; format: functional, organism-based; design: dose 140 mg/kg
Mus musculus [12] = test: Analgetic activity against CF-1 mouse assessed as increase in reaction time at 100 mg/kg, po by heat stimulus induced tail flick response assay; format: functional, organism-based; design: dose 100 mg/kg
Mus musculus [13] = test: Analgetic activity in sc dosed CF1S mouse assessed as writhing by phenylquinone writhing test; format: functional; settings: Mus musculus, CF1S, sc; read-out: ED50
Mus musculus [14] = test: Analgetic activity against CF-1 mouse assessed as increase in reaction time at 2.5 mg/kg, sc by heat stimulus induced tail flick response assay; format: functional, organism-based; design: dose 2.5 mg/kg
Mus musculus [15] = test: Analgetic activity against CF-1 mouse assessed as increase in reaction time at 20 mg/kg, po by heat stimulus induced tail flick response assay; format: functional, organism-based; design: dose 20 mg/kg
Mus musculus [16] = test: Analgetic activity against CF-1 mouse assessed as increase in reaction time at 30 mg/kg, po by heat stimulus induced tail flick response assay; format: functional, organism-based; design: dose 30 mg/kg
Mus musculus [17] = test: Analgetic activity against CF-1 mouse assessed as increase in reaction time at 60 mg/kg, sc by heat stimulus induced tail flick response assay; format: functional, organism-based; design: dose 60 mg/kg
Rhesus monkey = test: Analgetic activity in naloxone challenged monkey assessed as frequency pretreated for 2 day by mouse jumping test; format: functional, organism-based; settings: Macaca mulatta
Mus musculus [18] = test: Analgetic activity against CF-1 mouse assessed as increase in reaction time at 10 mg/kg, sc by heat stimulus induced tail flick response assay; format: functional, organism-based; design: dose 10 mg/kg
Mus musculus [19] = test: Analgetic activity against CF-1 mouse assessed as increase in reaction time at 80 mg/kg, po by heat stimulus induced tail flick response assay; format: functional, organism-based; design: dose 80 mg/kg
Mus musculus [20] = test: Analgetic activity against CF-1 mouse assessed as increase in reaction time at 1.2 mg/kg, sc by heat stimulus induced tail flick response assay; format: functional, organism-based; design: dose 1.2 mg/kg
Mus musculus [21] = test: Analgetic activity against CF-1 mouse assessed as increase in reaction time at 40 mg/kg, sc by heat stimulus induced tail flick response assay; format: functional, organism-based; design: dose 40 mg/kg
Mus musculus [22] = test: Analgetic activity against CF-1 mouse assessed as increase in reaction time at 80 mg/kg, sc by heat stimulus induced tail flick response assay; format: functional, organism-based; design: dose 80 mg/kg
Mus musculus [23] = test: Analgetic activity against CF-1 mouse assessed as increase in reaction time at 30 mg/kg, sc by heat stimulus induced tail flick response assay; format: functional, organism-based; design: dose 30 mg/kg
Mus musculus [24] = test: Toxicity in sc dosed CF1S mouse; format: organism-based; settings: in vivo
Mus musculus [25] = test: Analgetic activity against CF-1 mouse assessed as increase in reaction time at 60 mg/kg, po by heat stimulus induced tail flick response assay; format: functional, organism-based; design: dose 60 mg/kg
Mus musculus [26] = test: Analgetic activity against CF-1 mouse assessed as increase in reaction time at 2 mg/kg, sc by heat stimulus induced tail flick response assay; format: functional, organism-based; design: dose 2 mg/kg
Mus musculus [27] = test: Analgetic activity against CF-1 mouse assessed as increase in reaction time at 160 mg/kg, sc by heat stimulus induced tail flick response assay; format: functional, organism-based; design: dose 160 mg/kg
Mus musculus [28] = test: Analgetic activity against CF-1 mouse assessed as increase in reaction time at 320 mg/kg, po by heat stimulus induced tail flick response assay; format: functional, organism-based; design: dose 320 mg/kg
Mus musculus [29] = organism: Mus musculus; test: Analgetic activity in nalorphine challenged mouse assessed as frequency pretreated for 2 day by mouse jumping test; format: functional, organism-based

SMILES: COc1ccc2c(c1)C1(c3ccccc3)CCN(C)C(C2)C1 (racemic)
- Activity (Mus musculus [1]): inactive

SMILES: CN1CC[C@]23c4c5ccc(O)c4O[C@H]2[C@@H](O)C=C[C@H]3[C@H]1C5 [MORPHINE]
- Activity (Mus musculus [2]): Active
- Activity (Mus musculus [3]): Active
- Activity (Mus musculus [4]): Active
- ED50 (Mus musculus [5]): 8.9 mg/kg

SMILES: CC1C2Cc3ccc(OC(=O)c4ccc(Br)cc4)cc3C1(c1ccccc1)CCN2C (centres undefined)
- Activity (Mus musculus [6]): Active
- Activity (Mus musculus [7]): Active

SMILES: CN(C)C(=O)CCN1CCC2(c3ccccc3)CC1Cc1ccc(O)cc12 (racemic)
- Activity (Mus musculus [8]): inactive

SMILES: CCCCC(=O)Oc1ccc2c(c1)C1(c3ccccc3)CCN(C)C(C2)C1C (centres undefined)
- Activity (Mus musculus [9]): Active
- Activity (Mus musculus [10]): Active

SMILES: CC(O)C(=O)O.CC1C2Cc3ccc(O)cc3C1(c1ccccc1)CCN2CCCCc1ccccc1 (centres undefined)
- Activity (Mus musculus [1]): inactive
- ED50 (Mus musculus [5]): > 100 mg/kg

SMILES: CCN1CCC2(c3ccccc3)c3cc(O)ccc3CC1C2C (centres undefined)
- Activity (Mus musculus [11]): Active

SMILES: CC(=O)Oc1ccc2c(c1)C1(c3ccc(Cl)cc3)CCN(C#N)C(C2)C1 (racemic)
- Activity (Mus musculus [12]): inactive
- ED50 (Mus musculus [13]): > 100 mg/kg

SMILES: CC1C2Cc3ccc(OC(=O)C4CCC4)cc3C1(c1ccccc1)CCN2C (centres undefined)
- Activity (Mus musculus [14]): Active
- Activity (Mus musculus [15]): Active

SMILES: CC(=O)Oc1ccc2c(c1)C1(c3ccccc3)CCN(C(C)=O)C(C2)C1 (racemic)
- Activity (Mus musculus [16]): inactive
- ED50 (Mus musculus [13]): > 100 mg/kg

SMILES: CN1CCC2(c3ccccc3)CC1Cc1ccc(O)cc12 (stereo in doubt; 43)
- Activity (Mus musculus [17]): inactive

SMILES: Oc1ccc2c(c1)C1(c3ccccc3)CCN(CC3CCC3)C(C2)C1 (racemic)
- Activity (Rhesus monkey): inactive

SMILES: CC1C2Cc3ccc(O)cc3C1(c1ccc(Cl)cc1)CCN2C (racemic)
- Activity (Mus musculus [15]): Active
- Activity (Mus musculus [18]): Active

SMILES: CC(=O)N1CCC2(c3ccccc3)CC1Cc1ccc(O)cc12 (racemic)
- Activity (Mus musculus [12]): inactive
- ED50 (Mus musculus [13]): > 100 mg/kg

SMILES: Oc1ccc2c(c1)C1(c3ccccc3)CCN(CC3CC3)C(C2)C1 (racemic)
- Activity (Rhesus monkey): inactive

SMILES: CC1C2Cc3ccc(O)cc3C1(c1ccccc1)CCN2CCc1ccccc1 (centres undefined)
- Activity (Mus musculus [18]): Active
- Activity (Mus musculus [19]): Active

SMILES: CC1C2Cc3ccc(OC(=O)c4ccc(Cl)cc4)cc3C1(c1ccccc1)CCN2C (centres undefined)
- Activity (Mus musculus [20]): Active

SMILES: COc1ccc2c(c1)C1(c3ccccc3)CCN(C)C(C2)C1C (centres undefined)
- Activity (Mus musculus [21]): Active
- Activity (Mus musculus [15]): Active
- Activity (Mus musculus [22]): Active

SMILES: CCN1CCC2(c3ccccc3)CC1Cc1ccc(O)cc12 (racemic)
- ED50 (Mus musculus [13]): > 30 mg/kg
- Activity (Mus musculus [23]): inactive

SMILES: CC1C2Cc3ccc(OC(=O)c4cccc(Cl)c4)cc3C1(c1ccccc1)CCN2C (centres undefined)
- Activity (Mus musculus [20]): Active

SMILES: CC1C2Cc3ccc(O)cc3C1(c1ccccc1)CCN2CCCC(=O)c1ccc(F)cc1.Cl.O (centres undefined)
- Activity (Mus musculus [3]): inactive
- Activity (Mus musculus [8]): inactive
- ED50 (Mus musculus [13]): > 100 mg/kg

SMILES: COCOc1ccc2c(c1)C1(c3ccccc3)CCN(C)C(C2)C1C (centres undefined)
- Activity (Mus musculus [15]): Active
- Activity (Mus musculus [7]): Active

SMILES: Oc1ccc2c(c1)C1(c3ccccc3)CCN(CC3CC3)C(C2)C1 (centres undefined)
- Activity (Mus musculus [24]): Toxic

SMILES: CC(=O)Oc1ccc2c(c1)C1(c3ccccc3)CCN(C)C(C2)C1C (centres undefined)
- Activity (Mus musculus [9]): Active
- Activity (Mus musculus [2]): Active

SMILES: CC1C2Cc3ccc(OC(=O)c4ccco4)cc3C1(c1ccccc1)CCN2C(=O)c1ccco1 (centres undefined)
- Activity (Mus musculus [25]): inactive

SMILES: O=C(Oc1ccc2c(c1)C1(c3ccccc3)CCN(C(=O)C3CC3)C(C2)C1)C1CC1 (racemic)
- Activity (Mus musculus [25]): inactive
- ED50 (Mus musculus [13]): > 100 mg/kg

SMILES: C[C@@H]1C2Cc3ccc(O)cc3C1(c1ccccc1)CCN2C (some centres undefined)
- Activity (Mus musculus [26]): Active
- Activity (Rhesus monkey): Active

SMILES: CCCCCN1CCC2(c3ccccc3)c3cc(O)ccc3CC1C2C (centres undefined)
- Activity (Mus musculus [14]): Active
- Activity (Mus musculus [27]): Active

SMILES: CC1C2Cc3ccc(O)cc3C1(c1ccccc1)CCN2CCc1ccc(N)cc1 (centres undefined)
- Activity (Mus musculus [20]): Active
- Activity (Mus musculus [9]): Active

SMILES: CC1C2Cc3ccc(OC(=O)CCl)cc3C1(c1ccccc1)CCN2C (centres undefined)
- Activity (Mus musculus [14]): Active

SMILES: CCC(=O)Oc1ccc2c(c1)C1(c3ccccc3)CCN(C)C(C2)C1C (centres undefined)
- Activity (Mus musculus [14]): Active

SMILES: CCCC(=O)Oc1ccc2c(c1)C1(c3ccccc3)CCN(C)C(C2)C1C (centres undefined)
- Activity (Mus musculus [15]): Active
- Activity (Mus musculus [9]): Active

SMILES: CC(=O)Oc1ccc2c(c1)C1(c3ccc(Cl)cc3)CCN(C)C(C2)C1 (racemic)
- Activity (Mus musculus [1]): Active
- ED50 (Mus musculus [13]): 20 mg/kg

SMILES: COc1ccc2c(c1)C1(c3ccccc3)CCN(C)C(C2)C1 (centres undefined)
- Activity (Mus musculus [23]): inactive
- Activity (Mus musculus [28]): inactive

SMILES: CC1C2Cc3ccc(OC(=O)c4cccc([N+](=O)[O-])c4)cc3C1(c1ccccc1)CCN2C (centres undefined)
- Activity (Mus musculus [29]): Active
- Activity (Mus musculus [20]): Active

SMILES: CC1C2Cc3ccc(O)cc3C1(c1ccc(F)cc1)CCN2C (racemic)
- Activity (Mus musculus [14]): Active
- Activity (Mus musculus [9]): Active

Reference: ChEMBL document CHEMBL3244027, “Syntheses, analgetic activity, and physical dependence capacity of 5-phenyl-6,7-benzomorphan derivatives” (J Med Chem, 1979)
